The values that follow come from patent publication US20070293467A1, “Demethyl-Cantharidin Platinum Complex Isomers and Their Use” (priority 2004, published 2007).

Read-outs that look alike come from different tables or passages of the source.

Holding throughout (assay type): cell-based
One test concerns L1210 resistance. Put plainly: MTT tetrazolium microculture growth inhibition, L1210 resistance. The following applies: for resistance / cross-resistance of L1210: L1210 resistance vs L1210; for IC50: L1210 resistance, 72 h exposure, MTT, read-out: Average growth-inhibitory activity (IC50). The method, then:
(§1) DMC platinum complexes, together with controls cisplatin, carboplatin, and oxaliplatin were screened for an in vitro antitumor activity against various tumorous cell lines, using a tetrazolium microculture assay.
(§2) Drugs: Drugs to be tested were dissolved in a complete medium at twice the highest concentration to be used, followed by filtration (0.22 μm) sterilization. A series of log dilutions were made from each drug solution using complete medium. All drug solutions were prepared 10 minutes before addition to cells.
(§3) In vitro drug exposure: For each drug to be tested, trypsinized cells were adjusted to a concentration of 2×10^5 cells/ml in a complete medium, and 0.1 ml of the cell suspension was added to each of 24 wells in a 96-well microculture plate. The plate was then incubated at a standard condition for 24 hours in order to allow the cells to be adhered to the bottom of the well and restart exponential growth. To each well of the control culture and drug/concentration combinations, 0.1 ml of the complete medium and drug solution were added, respectively. Each drug/concentration combination consisting of four replicates while the control culture consisting of 12 replicates. The twelve replicates of a blank control containing 0.2 ml of the complete medium were set aside to account for the background. The cultures were incubated for additional 72 hours. All tests were repeated at least 3 times on different occasions.
(§4) MTT assay: The MTT (tetrazolium) assay was used to determine the growth-inhibitory effects of different drugs. A 5 mg/ml solution of MTT (3-(4,5-dimethylthiazol-2-yl)-2,5-diphenyltetrazolium bromide) was prepared in phosphate buffer saline (pH 7.4), sterilized by filtration (0.22 μm) and stored at −20° C. To each well, 0.02 ml of an MTT solution was added, and the plate was incubated for 4 hours under standard conditions. The medium in each well was then removed, and 0.1 ml of DMSO (dimethylsulfoxide) was added to each well to solubilize the colored dye produced from the metabolic reduction of MTT. The amount of reduced MTT was measured by spectrophotometric means (570 nm).
(§5) Data analysis: A mean value of OD was determined for all of the 12 control wells. For each concentration of each drug, A mean OD of the 4 wells was determined. All the mean ODs were subtracted from the blank to account for the background. The “Percent of Control” values were determined and plotted.

Another test relates to SK-Hep resistance. In words: MTT tetrazolium microculture growth inhibition, SK-Hep resistance. The settings on record: for IC50: SK-Hep resistance, 72 h exposure, MTT, read-out: Average growth-inhibitory activity (IC50); for resistance of SK-Hep to the drug: SK-Hep resistance vs SK-Hep, from IC50 of Table 5. How it is done:
as §1, §2, §3, §4, §5

Test [1] concerns colorectal cancer cell line Colo320. Put plainly: MTT tetrazolium microculture growth inhibition, Colo320. The settings on record: for IC50: Colo320, 72 h exposure, MTT, read-out: Average growth-inhibitory activity (IC50); for activity against colorectal cancer cell line Colo320: in words, from Table 5. The method, then:
as §1, §2, §3, §4, §5

Another test deals with HT-29. In words: MTT tetrazolium microculture growth inhibition, HT-29. The following applies: 72 h exposure, read-out: Average growth-inhibitory activity (IC50). The method, then:
as §1, §2, §3, §4, §5

The subject of another test is Huh-7 resistance. In words: MTT tetrazolium microculture growth inhibition, Huh-7 resistance. The following applies: for cross-resistance of Huh-7: Huh-7 resistance vs Huh-7, within experimental errors; for IC50: Huh-7 resistance, 72 h exposure, MTT, read-out: Average growth-inhibitory activity (IC50); for resistance of Huh-7 to the drug: Huh-7 resistance vs Huh-7, from IC50 of Table 5. How it is done:
as §1, §2, §3, §4, §5

For test [2], the system named is liver cancer cell line PLC/5. In words: MTT tetrazolium microculture growth inhibition, PLC/5. The settings on record: for IC50: PLC/5, 72 h exposure, MTT, read-out: Average growth-inhibitory activity (IC50); for activity against liver cancer cell line PLC/5: in words, from Table 5. How it is done: as §1, §2, §3, §4, §5
Another test relates to SK-Hep. In words: MTT tetrazolium microculture growth inhibition, SK-Hep. The settings on record: for IC50: SK-Hep, 72 h exposure, MTT, read-out: Average growth-inhibitory activity (IC50); for in vitro antitumor activity against SK-Hep: in words, from Table 5. How it is done: as §1, §2, §3, §4, §5
A further test relates to Huh-7. In words: MTT tetrazolium microculture growth inhibition, Huh-7. The settings on record: for IC50: Huh-7, 72 h exposure, MTT, read-out: Average growth-inhibitory activity (IC50); for in vitro antitumor activity against Huh-7 cell: in words, from Table 5. How it is done: as §1, §2, §3, §4, §5
Another test relates to HCT-116. In words: MTT tetrazolium microculture growth inhibition, HCT-116. The settings on record: 72 h exposure, read-out: Average growth-inhibitory activity (IC50). How it is done:
as §1, §2, §3, §4, §5

A further test deals with L1210. Put plainly: MTT tetrazolium microculture growth inhibition, L1210. The following applies: 72 h exposure, read-out: Average growth-inhibitory activity (IC50). How it is done: as §1, §2, §3, §4, §5

For `O=C1[O][Pt]2([NH][C@@H]3CCCC[C@H]3[NH]2)[O]C(=O)C2C3CCC(O3)C12` (mixture of isomers) [Trans-DMC platinum complex, Trans-Racemic DMC Platinum Complex], in the test with L1210 resistance, the “resistance / cross-resistance of L1210” value is given as “no cross-resistance”. The IC50 (in general, the concentration at which inhibition is half-maximal) with L1210 resistance amounted to 0.17 ± 0.05 µM; in the test with SK-Hep resistance, 5.01 ± 0.68 µM; in test [1], 2.54 ± 0.95 µM; in the test with HT-29 it was 2.09 ± 0.69 µM; in the test on Huh-7 resistance, 5.99 ± 0.52 µM; in [2] it was 4.64 ± 1.01 µM. In addition, the 50% inhibitory concentration (IC50) was 4.27 ± 1.03 µM with SK-Hep, 4.47 ± 0.79 µM in the test with Huh-7, 0.81 ± 0.29 µM in the test with HCT-116 and 0.14 ± 0.06 µM in the test with L1210. Further, in [1], the “activity against colorectal cancer cell line Colo320” value is reported as “more effective”. In the test with Huh-7 resistance, the “cross-resistance of Huh-7” value is on record as “no cross-resistance”. Moreover, the “activity against liver cancer cell line PLC/5” value in test [2] is reported as “effective activities”. The “in vitro antitumor activity against SK-Hep” value in the test on SK-Hep is listed as “effective in vitro antitumor activities”. Further, the “in vitro antitumor activity against Huh-7 cell” value in the test with Huh-7 is “effective in vitro antitumor activities”.
In the case of `O=C1[O][Pt]2([NH][C@@H]3CCCC[C@H]3[NH]2)[O]C1=O` [Oxaliplatin, reference compound], the half-maximal inhibitory concentration (IC50) in [1] is 1 ± 0.31 µM; in test [2] it was 6.48 ± 3.19 µM; with SK-Hep, 9.09 ± 4.24 µM; in the test with Huh-7 it was 8.97 ± 4.56 µM.
Regarding `N.N.O=C([O-])C1(C(=O)[O-])CCC1.[Pt+2]` [Carboplatin, reference compound], the “resistance / cross-resistance of L1210” value with L1210 resistance is “high resistance”. In addition, the IC50 with L1210 resistance amounted to 126 ± 17.2 µM; with SK-Hep resistance, 358 ± 28 µM; in [1], 41.7 ± 5.44 µM; in the test on HT-29 it was 134 ± 15 µM; in the test on Huh-7 resistance it was 176 ± 54 µM; in test [2] it was 80.2 ± 15.8 µM. The IC50 in the test on SK-Hep turned out to be 134 ± 10.3 µM; in the test on Huh-7 it was 117 ± 9.82 µM; with HCT-116, 69.4 ± 14.7 µM; in the test on L1210, 12.8 ± 2.14 µM. Moreover, in the test with SK-Hep resistance, the “resistance of SK-Hep to the drug” value is “about 2.7 fold”. Further, in the test on Huh-7 resistance, the “resistance of Huh-7 to the drug” value is 1.5 fold.
For `O=C1[O][Pt]2([NH][C@H]3CCCC[C@@H]3[NH]2)[O]C(=O)C2C3CCC(O3)C12` (stereo partly drawn) [Trans-S,S(+)-DMC platinum complex, Trans-S,S-(+)-DMC platinum complex], the “resistance / cross-resistance of L1210” value with L1210 resistance is “no cross-resistance”. Also, the concentration for half-maximal inhibition (IC50) with L1210 resistance is 0.12 ± 0.06 µM; with SK-Hep resistance, 8.09 ± 0.89 µM; in test [1], 4.96 ± 1.32 µM; in the test with HT-29 it was 3.07 ± 0.73 µM; in the test on Huh-7 resistance, 16.2 ± 2.6 µM; in test [2], 6.26 ± 1.87 µM. Moreover, the IC50 was determined as 6.15 ± 1 µM in the test on SK-Hep, 8.46 ± 1.51 µM in the test on Huh-7, 2.04 ± 0.41 µM with HCT-116 and 0.11 ± 0.05 µM with L1210. Besides, in [1], the “activity against colorectal cancer cell line Colo320” value was “more effective”. Further, the “activity against liver cancer cell line PLC/5” value in test [2] is “effective activities”. In the test with SK-Hep, the “in vitro antitumor activity against SK-Hep” value is recorded as “effective in vitro antitumor activities”. The “in vitro antitumor activity against Huh-7 cell” value in the test with Huh-7 is recorded as “effective in vitro antitumor activities”.
On to `N.N.[Cl][Pt][Cl]` [Cisplatin, reference compound], for which the “resistance / cross-resistance of L1210” value with L1210 resistance is reported as “high resistance”. Besides, the IC50 in the test on L1210 resistance was 14 ± 1.49 µM; in the test with SK-Hep resistance, 51.8 ± 7.01 µM; in [1], 2.54 ± 0.48 µM; in the test with HT-29, 12.1 ± 2.25 µM; in the test on Huh-7 resistance it was 25.6 ± 3.5 µM; in [2], 6.92 ± 1.46 µM. Further, the IC50 was determined as 13.5 ± 1.84 µM in the test with SK-Hep, 11.7 ± 1.21 µM in the test with Huh-7, 4.14 ± 0.8 µM in the test with HCT-116 and 0.82 ± 0.14 µM in the test with L1210. Besides, the “resistance of SK-Hep to the drug” value with SK-Hep resistance was determined as 4 fold. The “resistance of Huh-7 to the drug” value in the test with Huh-7 resistance is reported as 1.5 fold.
For `O=C1OC(=O)C2C3CCC(O3)C12` (stereo not shown) [DMC, Demethylcantharidin, reference compound], the IC50 came to 45.5 ± 3.69 µM in the test with L1210 resistance (Mus musculus); 25.5 ± 1.69 µM in the test with SK-Hep resistance (SKHep); 23.9 ± 1.42 µM in test [1] (Homo sapiens, COLO 320); 32.7 ± 2.57 µM in the test on HT-29 (Homo sapiens); 26.9 ± 3.03 µM in the test on Huh-7 resistance (Homo sapiens); 25.3 ± 1.98 µM in test [2] (PLC5). In addition, the IC50 in the test with SK-Hep (SKHep) stood at 19 ± 2.01 µM; in the test on Huh-7 (Homo sapiens), 32.9 ± 3.68 µM; with HCT-116 (Homo sapiens), 23.2 ± 2.06 µM; in the test on L1210 (Mus musculus), 31.2 ± 1.79 µM.
`O=C1[O][Pt]2([NH][C@H]3CCCC[C@H]3[NH]2)[O]C(=O)C2C3CCC(O3)C12` (stereo partly drawn) [Cis-DMC platinum complex]: the concentration for half-maximal inhibition (IC50) amounted to 22.7 ± 1.11 µM in the test with SK-Hep resistance; 5.98 ± 0.97 µM in test [1]; 17.1 ± 0.77 µM in the test on Huh-7 resistance; 17.1 ± 1.18 µM in test [2]; 19.4 ± 2.23 µM in the test on SK-Hep; 19 ± 1.46 µM in the test with Huh-7. In the test with HCT-116, the half-maximal inhibitory concentration (IC50) came out at 12.6 ± 1.67 µM. The “cross-resistance of Huh-7” value in the test on Huh-7 resistance is “no cross-resistance”.
Take `O=C1[O][Pt]2([NH][C@@H]3CCCC[C@H]3[NH]2)[O]C(=O)C2C3CCC(O3)C12` (stereo partly drawn) [Trans-R,R(−)-DMC platinum complex, Trans-R,R-(−)-DMC platinum complex]: in the test with L1210 resistance, the “resistance / cross-resistance of L1210” value is given as “no cross-resistance”. The IC50 with L1210 resistance stood at 0.99 ± 0.1 µM; with SK-Hep resistance, 4.7 ± 0.95 µM; in test [1] it was 2.45 ± 0.83 µM; with HT-29, 0.92 ± 0.57 µM; in the test with Huh-7 resistance, 26.9 ± 6.14 µM; in test [2] it was 3.23 ± 1.13 µM. Moreover, the IC50 in the test on SK-Hep was 6.63 ± 2.21 µM; with Huh-7, 3.65 ± 1.1 µM; in the test with HCT-116, 0.45 ± 0.27 µM; with L1210 it was 0.76 ± 0.09 µM. For the same compound, the “activity against colorectal cancer cell line Colo320” value in test [1] is given as “more effective”. Further, the “activity against liver cancer cell line PLC/5” value in [2] was “effective activities”. In addition, the “in vitro antitumor activity against SK-Hep” value in the test with SK-Hep is “effective in vitro antitumor activities”. Further, in the test on Huh-7, the “in vitro antitumor activity against Huh-7 cell” value is “effective in vitro antitumor activities”.
